Patent US9926302B2, “Heteroaryl substituted heterocyclyl sulfones” (priority 2014, dated 2018)

Molecular target: T1, Human CaV2.2 channels (Homo sapiens, UniProt Q00975)
T1 construct: expressed in transfected cells
Assay: Fluorescence assay for CaV2.2 channels using potassium depolarization to induce channel opening (FLIPR, Fluo 4)
Assay type: cell-based
Details: HEK293, 3 μM test compound; alternative assay buffer 30 mM KCl (inactivated channel state); HEK293 cells stably expressing human CaV2.2; read-out: Activity Category: %-Inhib (CaV2.2) @3 μM @30 mM KCl
Description: In the process, the Ca^2+ influx is quantified in the FLIPR assay with the aid of a Ca^2+-sensitive dye (type Fluo-4, Molecular Probes Europe BV, Leiden, the Netherlands) in a fluorescent imaging plate reader (FLIPR 3, Molecular Devices, Sunnyvale, USA), as described hereinafter.
2.1 Fluorescence Assay for CaV2.2 Channels Using Potassium Depolarization to Induce Channel Opening
Human CaV2.2 channels were stably expressed in HEK293 cells together with alpha2-delta and beta subunits of voltage gated calcium channels. In addition, an inwardly rectifying potassium channel (Kir2.3) was stably expressed in these cells to augment control of the cell membrane potential by the concentration of extracellular potassium ions. Raise of the extracellular potassium concentration leads to depolarization of the membrane potential and thus regulates the voltage dependent state of CaV2.2 channels. For preparation, cells were seeded in black poly-D-lysine coated 96-well plates (Becton Dickinson, Biocoat 4640) in 100 μL medium [500 mL DMEM/F-12 plus Glutamax (Invitrogen 31331-093) plus 5.5 mL MEM NEAA 100× (Invitrogen 11140-035) plus 50 mL FBS decomplemented (Invitrogen 10270-106) plus 200 μg/mL Geneticin (Invitrogen 10131-027) plus 50 μg/mL Hygromycin B (Invitrogen 10687-010) plus 2 μg/mL Blasticidin (anti-bl5b Invivo-Gen) plus 0.2 μg/mL Puromycin (A 11138-03)] at a cell density of 30.000 cells per well. Plates were incubated at 37° C. (5% CO2) for 20 to 23 h. On the day of experiment medium was discarded and cells were loaded with Fluo 4 by addition of 100 μL of basic assay buffer (10 mM HEPES, 1 mM KCl, 149 mM NaCl, 0.8 mM CaCl2, 1.7 mM MgCl2, 10 mM Glucose, 0.1% BSA. pH 7.4) containing 2 μM Fluo 4 (Molecular Probes; F-14201), 0.01% pluronic acid (Molecular Probes; P-6866) and 2.5 mM probenecid (Molecular Probes; P36400). Cells were incubated in the dark at 25° C. for 60 min. Then dye containing buffer was discarded and 100 μL basic (1 mM KCl) or alternative (30 mM KCl) assay buffer was added. The alternative assay buffer contained altered concentrations of KCl (30 mM) and NaCl (120 mM) and was used in order to promote the inactivated channel state. After that 25 μL of basic or alternative assay buffer with or without test compound were added and cells were incubated again in the dark at 25° C. for 15 min. Fluorescence intensity was measured on a FLIPR 3 instrument (Molecular Devices Corp., Sunnyvale, Calif.) with excitation at 480 nm and emission at 535 nm. After continuously reading fluorescence for 30 sec, 50 μL of basic assay buffer containing 210 mM KCl (NaCl omitted) were added for depolarization. Peak fluorescent signal intensity was determined and the amplitude of the peak signal, normalized to base line, was used to measure channel inhibition by test compounds.

T1 sequence (P54289 947-1103): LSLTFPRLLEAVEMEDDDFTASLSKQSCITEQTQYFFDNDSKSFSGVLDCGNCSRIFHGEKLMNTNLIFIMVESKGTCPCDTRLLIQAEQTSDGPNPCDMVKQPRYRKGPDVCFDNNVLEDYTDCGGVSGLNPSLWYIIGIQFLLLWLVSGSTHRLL
T1 sequence (P54289 25-946): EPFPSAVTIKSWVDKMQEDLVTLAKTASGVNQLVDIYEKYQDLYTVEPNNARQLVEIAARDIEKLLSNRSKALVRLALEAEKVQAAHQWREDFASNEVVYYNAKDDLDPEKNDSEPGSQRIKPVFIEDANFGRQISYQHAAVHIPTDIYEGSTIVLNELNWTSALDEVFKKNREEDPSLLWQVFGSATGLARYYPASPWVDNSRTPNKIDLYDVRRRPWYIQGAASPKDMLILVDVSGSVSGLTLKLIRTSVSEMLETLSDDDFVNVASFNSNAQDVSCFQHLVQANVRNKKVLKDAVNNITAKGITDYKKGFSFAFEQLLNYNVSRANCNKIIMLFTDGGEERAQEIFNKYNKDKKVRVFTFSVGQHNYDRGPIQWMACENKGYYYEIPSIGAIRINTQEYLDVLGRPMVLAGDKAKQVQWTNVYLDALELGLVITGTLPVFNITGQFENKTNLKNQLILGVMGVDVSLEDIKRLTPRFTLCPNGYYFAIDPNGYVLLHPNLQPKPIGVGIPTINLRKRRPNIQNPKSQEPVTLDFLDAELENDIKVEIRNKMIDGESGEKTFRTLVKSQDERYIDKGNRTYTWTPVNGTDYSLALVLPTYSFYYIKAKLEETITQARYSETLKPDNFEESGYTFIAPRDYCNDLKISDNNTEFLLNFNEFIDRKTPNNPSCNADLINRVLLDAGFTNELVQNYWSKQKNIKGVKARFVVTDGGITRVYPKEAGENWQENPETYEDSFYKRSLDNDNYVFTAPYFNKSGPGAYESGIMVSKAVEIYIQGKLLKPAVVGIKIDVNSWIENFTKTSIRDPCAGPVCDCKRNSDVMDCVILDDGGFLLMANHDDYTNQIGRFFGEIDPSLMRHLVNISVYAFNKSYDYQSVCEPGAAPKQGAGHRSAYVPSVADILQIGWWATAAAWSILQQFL
T1 sequence (P54284 whole entry, further chain): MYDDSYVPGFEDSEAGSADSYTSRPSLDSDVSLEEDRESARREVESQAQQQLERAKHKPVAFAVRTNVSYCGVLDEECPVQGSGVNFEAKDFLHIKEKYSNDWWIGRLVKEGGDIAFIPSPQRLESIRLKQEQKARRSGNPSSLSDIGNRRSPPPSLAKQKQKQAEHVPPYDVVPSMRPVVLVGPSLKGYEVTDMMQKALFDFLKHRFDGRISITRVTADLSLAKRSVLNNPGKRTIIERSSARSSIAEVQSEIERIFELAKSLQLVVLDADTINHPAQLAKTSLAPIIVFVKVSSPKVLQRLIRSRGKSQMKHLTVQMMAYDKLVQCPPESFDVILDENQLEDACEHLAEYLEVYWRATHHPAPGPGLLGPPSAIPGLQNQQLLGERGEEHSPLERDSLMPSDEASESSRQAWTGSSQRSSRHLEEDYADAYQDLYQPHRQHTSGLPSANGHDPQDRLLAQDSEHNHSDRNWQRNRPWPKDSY
T1 sequence (Q00975 whole entry): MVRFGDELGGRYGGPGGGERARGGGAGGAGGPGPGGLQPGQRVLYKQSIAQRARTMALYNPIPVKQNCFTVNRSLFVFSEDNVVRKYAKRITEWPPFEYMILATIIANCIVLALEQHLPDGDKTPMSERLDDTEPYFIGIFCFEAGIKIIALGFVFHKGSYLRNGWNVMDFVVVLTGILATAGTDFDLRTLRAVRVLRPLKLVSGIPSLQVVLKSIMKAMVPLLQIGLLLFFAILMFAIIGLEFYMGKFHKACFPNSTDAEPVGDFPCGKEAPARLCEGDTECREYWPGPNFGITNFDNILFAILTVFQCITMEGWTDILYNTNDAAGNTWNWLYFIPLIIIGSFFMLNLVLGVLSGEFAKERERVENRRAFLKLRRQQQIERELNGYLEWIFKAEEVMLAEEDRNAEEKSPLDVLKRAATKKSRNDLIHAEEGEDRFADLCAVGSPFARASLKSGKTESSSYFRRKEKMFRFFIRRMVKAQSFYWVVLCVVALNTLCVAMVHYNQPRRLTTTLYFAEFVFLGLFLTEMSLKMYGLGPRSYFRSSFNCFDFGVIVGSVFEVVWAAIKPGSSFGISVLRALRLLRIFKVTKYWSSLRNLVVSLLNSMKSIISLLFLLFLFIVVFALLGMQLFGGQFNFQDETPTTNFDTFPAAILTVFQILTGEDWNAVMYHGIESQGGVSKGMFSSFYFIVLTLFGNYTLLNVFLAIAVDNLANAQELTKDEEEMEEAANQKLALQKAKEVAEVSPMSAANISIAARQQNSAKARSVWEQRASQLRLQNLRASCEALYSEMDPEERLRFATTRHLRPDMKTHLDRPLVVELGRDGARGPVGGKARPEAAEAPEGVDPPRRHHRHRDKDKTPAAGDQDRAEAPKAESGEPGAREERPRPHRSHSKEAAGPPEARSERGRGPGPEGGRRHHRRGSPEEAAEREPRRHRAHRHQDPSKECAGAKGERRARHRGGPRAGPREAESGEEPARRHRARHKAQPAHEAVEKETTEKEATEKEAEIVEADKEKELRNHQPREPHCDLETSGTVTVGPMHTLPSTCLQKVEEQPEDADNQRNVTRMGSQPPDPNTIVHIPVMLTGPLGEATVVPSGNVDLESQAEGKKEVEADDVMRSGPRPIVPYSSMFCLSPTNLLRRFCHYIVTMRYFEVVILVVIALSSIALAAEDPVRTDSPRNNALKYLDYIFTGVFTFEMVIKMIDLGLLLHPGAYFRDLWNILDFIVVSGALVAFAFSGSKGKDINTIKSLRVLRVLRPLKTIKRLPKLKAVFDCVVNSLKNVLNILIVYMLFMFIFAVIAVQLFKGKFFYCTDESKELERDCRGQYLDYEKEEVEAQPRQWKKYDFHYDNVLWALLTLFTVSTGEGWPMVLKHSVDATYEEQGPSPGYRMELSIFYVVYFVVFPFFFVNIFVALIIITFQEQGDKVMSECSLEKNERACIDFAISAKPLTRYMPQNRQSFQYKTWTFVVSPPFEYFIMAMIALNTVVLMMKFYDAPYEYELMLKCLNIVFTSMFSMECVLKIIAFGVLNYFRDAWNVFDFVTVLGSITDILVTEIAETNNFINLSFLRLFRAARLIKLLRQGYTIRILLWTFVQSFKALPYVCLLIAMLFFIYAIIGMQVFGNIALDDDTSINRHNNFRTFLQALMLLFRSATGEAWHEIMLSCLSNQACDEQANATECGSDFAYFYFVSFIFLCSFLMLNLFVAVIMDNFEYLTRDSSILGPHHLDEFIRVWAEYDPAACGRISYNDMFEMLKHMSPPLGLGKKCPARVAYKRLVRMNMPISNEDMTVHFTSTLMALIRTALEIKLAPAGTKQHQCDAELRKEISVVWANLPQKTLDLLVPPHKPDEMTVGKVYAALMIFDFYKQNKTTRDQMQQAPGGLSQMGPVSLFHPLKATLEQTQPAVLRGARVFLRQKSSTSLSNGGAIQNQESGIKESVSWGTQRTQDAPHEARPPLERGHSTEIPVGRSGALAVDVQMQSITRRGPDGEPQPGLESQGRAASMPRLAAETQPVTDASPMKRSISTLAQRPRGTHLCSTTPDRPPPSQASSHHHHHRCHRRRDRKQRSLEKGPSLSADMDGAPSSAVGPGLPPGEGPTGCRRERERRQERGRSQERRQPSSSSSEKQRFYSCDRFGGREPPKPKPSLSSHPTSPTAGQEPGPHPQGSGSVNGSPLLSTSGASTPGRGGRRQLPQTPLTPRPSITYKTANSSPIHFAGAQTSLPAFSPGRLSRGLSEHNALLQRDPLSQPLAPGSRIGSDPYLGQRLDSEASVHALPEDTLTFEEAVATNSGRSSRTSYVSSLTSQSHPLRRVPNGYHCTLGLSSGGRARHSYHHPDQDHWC

SMILES | inhibition at 3 µM
CCC1(S(=O)(=O)c2cccc(C(F)(F)F)c2)CCOC(c2nnc(C(F)(F)F)o2)C1 (racemic) [SC-242, 2-[4-Ethyl-4-[[3-(trifluoromethyl)phenyl]sulfonyl]-tetrahydro-pyran-2-yl]-5-(trifluoromethyl)-[1,3,4]oxadiazole] | 40 to 75%
COc1cc(OC)c(C2CC(C)(S(=O)(=O)c3cccc(C(F)(F)F)c3)CCO2)cn1 (racemic) [SC-247, 2,4-Dimethoxy-5-[4-methyl-4-[[3-(trifluoromethyl)phenyl]sulfonyl]-tetrahydro-pyran-2-yl]-pyridine] | 75 to 95%
COc1cc(C)c(C2CC(C)(S(=O)(=O)c3cccc(C(F)(F)F)c3)CCO2)cn1 (racemic) [SC-252, 2-Methoxy-4-methyl-5-[4-methyl-4-[[3-(trifluoromethyl)phenyl]sulfonyl]-tetrahydro-pyran-2-yl]-pyridine] | 75 to 95%
COc1cc(F)c(C2CC(C)(S(=O)(=O)c3cccc(C(F)(F)F)c3)CCO2)cn1 (racemic) [SC-259, 4-Fluoro-2-methoxy-5-[4-methyl-4-[[3-(trifluoromethyl)phenyl]sulfonyl]-tetrahydro-pyran-2-yl]-pyridine] | > 95%
CC(C)Oc1ccc(C2CC(C)(S(=O)(=O)c3cccc(C(F)(F)F)c3)CCO2)cn1 (racemic) [SC-302, 2-Isopropoxy-5-[4-methyl-4-[[3-(trifluoromethyl)phenyl]sulfonyl]-tetrahydro-pyran-2-yl]-pyridine] | > 95%
CCC1(S(=O)(=O)c2cccc(C(F)(F)F)c2)CCOC(c2cccc(C)n2)C1 (racemic) [SC-303, 2-[4-Ethyl-4-[[3-(trifluoromethyl)phenyl]sulfonyl]-tetrahydro-pyran-2-yl]-6-methyl-pyridine] | 75 to 95%
CC1(S(=O)(=O)c2cccc(C(F)(F)F)c2)CCOC(c2ccc(C(F)(F)F)nc2)C1 (racemic) [SC-306, 5-[4-Methyl-4-[[3-(trifluoromethyl)phenyl]sulfonyl]-tetrahydro-pyran-2-yl]-2-(trifluoromethyl)-pyridine] | > 95%
CCC1(S(=O)(=O)c2cccc(C(F)(F)F)c2)CCOC(c2cccnc2C)C1 (racemic) [SC-314, 3-[4-Ethyl-4-[[3-(trifluoromethyl)phenyl]sulfonyl]-tetrahydro-pyran-2-yl]-2-methyl-pyridine] | 40 to 75%
CCC1(S(=O)(=O)c2cccc(C(F)(F)F)c2)CCOC(c2ccc(C)nc2C)C1 (racemic) [SC-319, 3-[4-Ethyl-4-[[3-(trifluoromethyl)phenyl]sulfonyl]-tetrahydro-pyran-2-yl]-2,6-dimethyl-pyridine] | 40 to 75%
CC1(S(=O)(=O)c2cccc(C(F)(F)F)c2)CCOC(c2cnc(C3CC3)cn2)C1 (racemic) [SC-328, 2-Cyclopropyl-5-[4-methyl-4-[[3-(trifluoromethyl)phenyl]sulfonyl]-tetrahydro-pyran-2-yl]-pyrazine] | > 95%
CCC1(S(=O)(=O)c2cccc(C(F)(F)F)c2)CCOC(c2cnc(C3CC3)cn2)C1 (racemic) [SC-333, 2-Cyclopropyl-5-[4-ethyl-4-[[3-(trifluoromethyl)phenyl]sulfonyl]-tetrahydro-pyran-2-yl]-pyrazine] | > 95%
CC1(S(=O)(=O)c2cccc(C(F)(F)F)c2)CCOC(c2ccc(Br)nc2)C1 (racemic) [SC-337, 2-Bromo-5-[4-methyl-4-[[3-(trifluoromethyl)phenyl]sulfonyl]-tetrahydro-pyran-2-yl]-pyridine] | > 95%
CC1(S(=O)(=O)c2cccc(C(F)(F)F)c2)CCOC(c2ncc(C(F)(F)F)cc2Cl)C1 (racemic) [SC-340, 3-Chloro-2-(4-methyl-4-((3-(trifluoromethyl)phenyl)sulfonyl)tetrahydro-2H-pyran-2-yl)-5-(trifluoromethyl)pyridine] | > 95%
Cc1cccc(C2CC(S(=O)(=O)c3cccc(C(F)(F)F)c3)CCO2)n1 (racemic) [SC-341, 2-methyl-6-[4-[[3-(trifluoromethyl)phenyl]sulfonyl]-tetrahydro-pyran-2-yl]-pyridine] | 40 to 75%
Cn1nc(C(F)(F)F)cc1C1CC(C)(S(=O)(=O)c2cccc(C(F)(F)F)c2)CCO1 (racemic) [SC-344, 1-Methyl-5-[4-methyl-4-[[3-(trifluoromethyl)phenyl]sulfonyl]-tetrahydro-pyran-2-yl]-3-(trifluoromethyl)-1H-pyrazole] | 75 to 95%
CC1(S(=O)(=O)c2cccc(C(F)(F)F)c2)CCOC(c2ccc(C3CC3)nc2)C1 (racemic) [SC-347, 2-Cyclopropyl-5-[4-methyl-4-[[3-(trifluoromethyl)phenyl]sulfonyl]-tetrahydro-pyran-2-yl]-pyridine] | > 95%
CC1(S(=O)(=O)c2cccc(C(F)(F)F)c2)CCOC(c2cccc(C(F)(F)F)n2)C1 (racemic) [SC-351, 2-[4-Methyl-4-[[3-(trifluoromethyl)phenyl]sulfonyl]-tetrahydro-pyran-2-yl]-6-(trifluoromethyl)-pyridine] | > 95%
CC1(S(=O)(=O)c2cccc(C(F)(F)F)c2)CCOC(c2ccc(N3CCCC3)nc2)C1 (racemic) [SC-406, 5-[4-Methyl-4-[[3-(trifluoromethyl)phenyl]sulfonyl]-tetrahydro-pyran-2-yl]-2-pyrrolidin-1-yl-pyridine] | > 95%
CC1(S(=O)(=O)c2cccc(C(F)(F)F)c2)CCOC(c2ccc(-n3cncn3)nc2)C1 (racemic) [SC-407, 5-[4-Methyl-4-[[3-(trifluoromethyl)phenyl]sulfonyl]-tetrahydro-pyran-2-yl]-2-(1H-[1,2,4]triazol-1-yl)-pyridine] | 75 to 95%
CNc1ccc(C2CC(C)(S(=O)(=O)c3cccc(C(F)(F)F)c3)CCO2)cn1 (racemic) [SC-412, Methyl-[5-[4-methyl-4-[[3-(trifluoromethyl)phenyl]sulfonyl]-tetrahydro-pyran-2-yl]-pyridin-2-yl]-amine] | 75 to 95%
CC1(S(=O)(=O)c2cccc(C(F)(F)F)c2)CCOC(c2ccc(OC(F)F)nc2)C1 (racemic) [SC-417, 2-(Difluoro-methoxy)-5-[4-methyl-4-[[3-(trifluoromethyl)phenyl]sulfonyl]-tetrahydro-pyran-2-yl]-pyridine] | > 95%
COCCOc1ccc(C2CC(C)(S(=O)(=O)c3cccc(C(F)(F)F)c3)CCO2)cn1 (racemic) [SC-420, 2-(2-Methoxy-ethoxy)-5-[4-methyl-4-[[3-(trifluoromethyl)phenyl]sulfonyl]-tetrahydro-pyran-2-yl]-pyridine] | 75 to 95%
Cn1nc(S(C)(=O)=O)cc1C1CC(C)(S(=O)(=O)c2cccc(C(F)(F)F)c2)CCO1 (racemic) [SC-433, 1-Methyl-3-methylsulfonyl-5-[4-methyl-4-[[3-(trifluoromethyl)phenyl]sulfonyl]-tetrahydro-pyran-2-yl]-1H-pyrazole] | 40 to 75%
Cn1nc(C2CC2)cc1C1CC(C)(S(=O)(=O)c2cccc(C(F)(F)F)c2)CCO1 (racemic) [SC-434, 3-Cyclopropyl-1-methyl-5-[4-methyl-4-[[3-(trifluoromethyl)phenyl]sulfonyl]-tetrahydro-pyran-2-yl]-1H-pyrazole] | 75 to 95%
CC1(S(=O)(=O)c2cccc(C(F)(F)F)c2)CCOC(c2ncc(C3CC3)cc2Cl)C1 (racemic) [SC-435, 3-Chloro-5-cyclopropyl-2-[4-methyl-4-[[3-(trifluoromethyl)phenyl]sulfonyl]-tetrahydro-pyran-2-yl]-pyridine] | > 95%
